Test results: patent publication US7368606B2, “Amorphous cinacalcet hydrochloride and preparation thereof” (Teva Pharmaceutical Industries Ltd., priority 2005, dated 2008)

Assays:
[1] = Water content and solid form of amorphous cinacalcet HCl after exposure to humidity (KF titration, PXRD); assay type: physicochemical; details: 100 percent relative humidity; for Solid form by PXRD after exposure to humidity (physical stability): hydrochloride
Protocol: (§1) Powder X-Ray powder diffraction data were obtained using a SCINTAG powder X-Ray diffractometer model X'TRA equipped with a solid state detector and a variable gonimeter. Copper radiation of 1.5418 Å was used. A round standard aluminum sample holder with round zero background, and cavity of 25(diameter)*0.5(dept) mm. Scanning parameters were in the range of 2-40°2θ and a continuous scan rate of 3°/min.
100 mg amorphous cinacalcet HCl was spread as a thin layer, and exposed to 100 percent relative humidity for 8 days. The sample was than tested by PXRD and by Karl Fischer (“KF”) titration. Amorphous cinacalcet HCl was obtained with water content of 1.4 percent.

[2] = Stability of amorphous cinacalcet HCl on storage at ambient temperature (PXRD); assay type: physicochemical; details: stored at ambient temperature in a closed bottle for 2 months, hydrochloride
Protocol: as §1, with “SCINTAG” left out, “Å” for “Å”

With C[C@@H](NCCCc1cccc(C(F)(F)F)c1)c1cccc2ccccc12.Cl [Amorphous Cinacalcet HCl, Cinacalcet hydrochloride] the “Water content by Karl Fischer titration after exposure to humidity” value ([1]; 100 mg spread as a thin layer, 8 days) was 1.4%, the “Solid form by PXRD after exposure to humidity (physical stability)” value ([1]; 8 days, listed as Amorphous cinacalcet) was “stable at high humidity levels” and the “Solid form by PXRD after exposure to humidity (physical stability)” value ([1]; 8 days, listed as amorphous cinacalcet HCl) was “Amorphous”. For the same compound, the Hygroscopicity ([1]; as shown in Example 2) was “non-hygroscopic”, the “Solid form by PXRD after storage (physical stability)” value [2] was “amorphous content” and the “Solid form by PXRD after storage (physical stability)” value ([2]; listed as Amorphous cinacalcet) was “stable under prolonged storage”.
